Article PMC12463120, “Phenylalanine‐Based DNA‐Encoded Chemical Libraries for the Discovery of Potent and Selective Small Organic Ligands Against Markers of Cancer and Immune Cells” (Advanced Science, 2025)

Tested on: various unrelated proteins, including TAAs and serological proteins
Assay: ELISA against multiple proteins (specificity)
Assay type: binding
Description: 2.13 ACP3 colorimetric enzymatic assay
Grenier 384 transparent, flat-bottom well plates were used. Each test compound was measured in triplicate. 16 µL of a solution of the compound (3µM, 5% DMSO in PBS for small molecules or PBS only for DNA-conjugates, pH 7.4) was loaded into the first well row. A serial 1:2 (on DNA) or 1:3 (off DNA) dilution in DMSO/PBS (5/95, off DNA) or only PBS (on DNA) was performed in a total volume per well of 8 µL. Human recombinant ACP3 (16 µL solution, 2.5 nM in PBS, pH 7.4) was added to each well.
After 10 min of incubation, 16 µL of a solution of para-nitrophenyl phosphate (pNPP, substrate, 5 mM in PBS, pH 7.4) was added. The plate was left to develop in the dark for 16 hours. Enzymatic reaction on the substrate (phosphate group removal by ACP3) was assessed by measuring absorption at 405 vs 620 nm on a Spectra Max Paradigm multimode plate reader ([…]).
2.14 Surface plasmon resonance (SPR)
SPR measurements were performed on a Biacore X100. […]
The protein (100 μL/well, 170 nM) was incubated for 2 h at 4 °C on a StreptaWell plate (transparent 96 - well plate, Roche #11645692001). […] The absorbance was measured at 450 nm (reference level, 620–650 nm) with a Spark multimode microplate reader (Tecan Life Sciences). […]

CC(C)Oc1ccc(-c2cccc(C[C@H](NC(=O)c3ccccc3-c3ccc(C(F)(F)F)cc3)C(=O)N[C@@H](CCCCNC(=S)Nc3ccc4c(c3)C(=O)OC43c4ccc(O)cc4Oc4cc(O)ccc43)C(=O)O)c2)c(F)c1 [compound 30]
selectivity by ELISA against multiple proteins: high selectivity over various unrelated proteins
